ChEMBL document CHEMBL1681651, “A broad spectrum anticancer nucleoside with selective toxicity against human colon cells in vitro” (2011)

Legend:
Assay type in all cases: functional
SF-268 = assay: Growth inhibition of human SF268 cells assessed as cell growth at 0.1 uM after 48 hrs by SRB assay; conditions: SF-268, 48 h, read-out: Activity
A549 [1] = assay: Growth inhibition of human A549 cells assessed as cell growth at 1 mM after 48 hrs by SRB assay; conditions: A549, 48 h, read-out: Activity
HOP-62 = assay: Growth inhibition of human HOP62 cells assessed as cell growth at 1 uM after 48 hrs by SRB assay; conditions: HOP-62, 48 h, read-out: Activity
UACC-62 = assay: Growth inhibition of human UACC62 cells after 48 hrs by […] growth inhibition assay; conditions: UACC-62, 48 h
SK-OV-3 = assay: Growth inhibition of human SKOV3 cells assessed as cell growth at 10 uM after 48 hrs by SRB assay; conditions: SK-OV-3, 48 h, read-out: Activity
UACC-257 [2] = assay: Growth inhibition of human UACC257 cells assessed as cell growth at 10 uM after 48 hrs by SRB assay; conditions: UACC-257, 48 h, read-out: Activity
OVCAR-3 [3] = assay: Growth inhibition of human OVCAR3 cells assessed as cell growth at 100 uM after 48 hrs by SRB assay; conditions: OVCAR-3, 48 h, read-out: Activity
Malme-3M = assay: Growth inhibition of human MALME-3M cells assessed as cell growth at 1 mM after 48 hrs by SRB assay; conditions: read-out: Activity
SK-MEL-5 = assay: Growth inhibition of human SK-MEL-5 cells assessed as cell growth at 100 uM after 48 hrs by SRB assay; conditions: SK-MEL-5, 48 h, read-out: Activity
UACC-257 [4] = assay: Growth inhibition of human UACC257 cells after 48 hrs by […] growth inhibition assay; conditions: UACC-257, 48 h
NCI-H322M [5] = assay: Growth inhibition of human NCI-H322M cells assessed as cell growth at 1 mM after 48 hrs by SRB assay; conditions: read-out: Activity
MOLT-4 = assay: Growth inhibition of human MOLT4 cells assessed as cell growth at 10 uM after 48 hrs by SRB assay; conditions: MOLT-4, 48 h, read-out: Activity
HCT-116 = assay: Growth inhibition of human HCT116 cells assessed as cell growth at 0.1 uM after 48 hrs by SRB assay; conditions: HCT-116, 48 h, read-out: Activity
KM12 = assay: Growth inhibition of human KM12 cells after 48 hrs by […] growth inhibition assay; conditions: KM12, 48 h
[6] = Growth inhibition of human […] cells after 48 hrs by […] growth inhibition assay
786-0 = assay: Growth inhibition of human 786-0 cells after 48 hrs by […] growth inhibition assay; conditions: 786-0, 48 h
OVCAR-3 [7] = assay: Growth inhibition of human OVCAR3 cells assessed as cell growth at 1 uM after 48 hrs by SRB assay; conditions: OVCAR-3, 48 h, read-out: Activity
MCF7 = assay: Growth inhibition of human MCF7 cells assessed as cell growth at 0.1 uM after 48 hrs by SRB assay; conditions: MCF7, 48 h, read-out: Activity
MDA-MB-435 = assay: Growth inhibition of human MDA-MB-435 cells assessed as cell growth at 1 mM after 48 hrs by SRB assay; conditions: MDA-MB-435, 48 h, read-out: Activity
NCI-H322M [8] = assay: Growth inhibition of human NCI-H322M cells assessed as cell growth at 100 uM after 48 hrs by SRB assay; conditions: read-out: Activity
TK-10 = assay: Growth inhibition of human TK10 cells assessed as cell growth at 10 uM after 48 hrs by SRB assay; conditions: TK-10, 48 h, read-out: Activity
A549 [9] = assay: Growth inhibition of human A549 cells assessed as cell growth at 100 uM after 48 hrs by SRB assay; conditions: A549, 48 h, read-out: Activity
BT-549 [10] = assay: Growth inhibition of human BT549 cells assessed as cell growth at 1 uM after 48 hrs by SRB assay; conditions: BT-549, 48 h, read-out: Activity
DU-145 = assay: Growth inhibition of human DU145 cells assessed as cell growth at 1 mM after 48 hrs by SRB assay; conditions: DU-145, 48 h, read-out: Activity
OVCAR-5 = assay: Growth inhibition of human OVCAR5 cells assessed as cell growth at 1 uM after 48 hrs by SRB assay; conditions: OVCAR-5, 48 h, read-out: Activity
T47D = assay: Growth inhibition of human T47D cells after 48 hrs by […] growth inhibition assay
COLO 205 = assay: Growth inhibition of human COLO205 cells assessed as cell growth at 10 uM after 48 hrs by SRB assay; conditions: COLO 205, 48 h, read-out: Activity
SF-539 = assay: Growth inhibition of human SF539 cells assessed as cell growth at 0.1 uM after 48 hrs by SRB assay; conditions: SF-539, 48 h, read-out: Activity
SNB-19 = assay: Growth inhibition of human SNB19 cells assessed as cell growth at 1 mM after 48 hrs by SRB assay; conditions: SNB-19, 48 h, read-out: Activity
SK-MEL-28 = assay: Growth inhibition of human SK-MEL-28 cells assessed as cell growth at 10 uM after 48 hrs by SRB assay; conditions: SK-MEL-28, 48 h, read-out: Activity
SK-MEL-2 = assay: Growth inhibition of human SK-MEL-2 cells assessed as cell growth at 10 uM after 48 hrs by SRB assay; conditions: SK-MEL-2, 48 h, read-out: Activity
NCI-H226 = assay: Growth inhibition of human NCI-H226 cells assessed as cell growth at 100 uM after 48 hrs by SRB assay; conditions: NCI-H226, 48 h, read-out: Activity
BT-549 [11] = assay: Growth inhibition of human BT549 cells assessed as cell growth at 0.1 uM after 48 hrs by SRB assay; conditions: BT-549, 48 h, read-out: Activity
[12] = read-out: LC50 (the source's name)
[13] = read-out: pLC50 (the source's name) (converted)

CCOC(=O)C[C@H]1[C@@H](O[Si](C)(C)C(C)(C)C)[C@H](n2cnc3c(NC(=O)Nc4ccccc4)ncnc32)O[C@@H]1CNC(=O)NC
growth at 0.1 µM (SF-268): 102%
growth at 1000 µM (A549 [1]): -58%
growth at 1 µM (HOP-62): 92%
GI50 (UACC-62; read-out: GI50): > 100 µM
CC50 (UACC-62; [12]): > 100 µM
TGI (UACC-62; read-out: TGI): > 100 µM
GI50 (UACC-62; read-out: pGI50 (converted)): > 100 µM
CC50 (UACC-62; [13]): > 100 µM
TGI (UACC-62; read-out: pTGI (converted)): > 100 µM
growth at 10 µM (SK-OV-3): 90%
growth at 10 µM (UACC-257 [2]): 99%
growth at 100 µM (OVCAR-3 [3]): 16%
growth at 1000 µM (Malme-3M): 17%
growth at 100 µM (SK-MEL-5): 28%
GI50 (UACC-257 [4]; read-out: GI50): 5.68 µM
CC50 (UACC-257 [4]; [12]): > 100 µM
TGI (UACC-257 [4]; read-out: TGI): > 100 µM
GI50 (UACC-257 [4]; read-out: pGI50 (converted)): 5.62 µM
CC50 (UACC-257 [4]; [13]): > 100 µM
TGI (UACC-257 [4]; read-out: pTGI (converted)): > 100 µM
growth at 1000 µM (NCI-H322M [5]): 72%
growth at 10 µM (MOLT-4): 76%
growth at 0.1 µM (HCT-116): 93%
GI50 (KM12; read-out: GI50): 3.95 µM
CC50 (KM12; [12]): > 100 µM
TGI (KM12; read-out: TGI): 20.9 µM
GI50 (KM12; read-out: pGI50 (converted)): 3.98 µM
CC50 (KM12; [13]): > 100 µM
TGI (KM12; read-out: pTGI (converted)): 20.9 µM
GI50 ([6]; read-out: GI50): 1.09 µM
CC50 [6, 12]: 59 µM
TGI ([6]; read-out: TGI): 4.57 µM
GI50 ([6]; read-out: pGI50 (converted)): 1.1 µM
CC50 [6, 13]: 58.9 µM
TGI ([6]; read-out: pTGI (converted)): 4.57 µM
GI50 (786-0; read-out: GI50): 2 µM
CC50 (786-0; [12]): 17.9 µM
TGI (786-0; read-out: TGI): 5.21 µM
GI50 (786-0; read-out: pGI50 (converted)): 2 µM
CC50 (786-0; [13]): 17.8 µM
TGI (786-0; read-out: pTGI (converted)): 5.25 µM
growth at 1 µM (OVCAR-3 [7]): 115%
growth at 0.1 µM (MCF7): 96%
growth at 1000 µM (MDA-MB-435): 8%
growth at 100 µM (NCI-H322M [8]): 89%
growth at 10 µM (TK-10): 105%
growth at 100 µM (A549 [9]): 23%
growth at 1 µM (BT-549 [10]): 109%
growth at 1000 µM (DU-145): -59%
growth at 1 µM (OVCAR-5): 103%
GI50 (T47D; read-out: GI50): 2.55 µM
CC50 (T47D; [12]): > 100 µM
TGI (T47D; read-out: TGI): > 100 µM
GI50 (T47D; read-out: pGI50 (converted)): 2.57 µM
CC50 (T47D; [13]): > 100 µM
TGI (T47D; read-out: pTGI (converted)): > 100 µM
growth at 10 µM (COLO 205): 93%
growth at 0.1 µM (SF-539): 97%
growth at 1000 µM (SNB-19): 12%
growth at 10 µM (SK-MEL-28): 100%
growth at 10 µM (SK-MEL-2): 99%
growth at 100 µM (NCI-H226): 71%
growth at 0.1 µM (BT-549 [11]): 104%

CNC(=O)NC[C@H]1O[C@@H](n2cnc3c(NC(=O)Nc4ccccc4)ncnc32)[C@H](O[Si](C)(C)C(C)(C)C)[C@@H]1CC(=O)N(C)OC
growth at 0.1 µM (SF-268): 98%
growth at 1000 µM (A549 [1]): 27%
growth at 1 µM (HOP-62): 88%
GI50 (UACC-62; read-out: GI50): 41.9 µM
CC50 (UACC-62; [12]): > 100 µM
TGI (UACC-62; read-out: TGI): > 100 µM
GI50 (UACC-62; read-out: pGI50 (converted)): 41.7 µM
CC50 (UACC-62; [13]): > 100 µM
TGI (UACC-62; read-out: pTGI (converted)): > 100 µM
growth at 10 µM (SK-OV-3): 95%
growth at 10 µM (UACC-257 [2]): 102%
growth at 100 µM (OVCAR-3 [3]): 41%
growth at 1000 µM (Malme-3M): 23%
growth at 100 µM (SK-MEL-5): 38%
GI50 (UACC-257 [4]; read-out: GI50): 22.6 µM
CC50 (UACC-257 [4]; [12]): > 100 µM
TGI (UACC-257 [4]; read-out: TGI): > 100 µM
GI50 (UACC-257 [4]; read-out: pGI50 (converted)): 22.4 µM
CC50 (UACC-257 [4]; [13]): > 100 µM
TGI (UACC-257 [4]; read-out: pTGI (converted)): > 100 µM
growth at 1000 µM (NCI-H322M [5]): 73%
growth at 10 µM (MOLT-4): 78%
growth at 0.1 µM (HCT-116): 93%
GI50 (KM12; read-out: GI50): 23.9 µM
CC50 (KM12; [12]): > 100 µM
TGI (KM12; read-out: TGI): > 100 µM
GI50 (KM12; read-out: pGI50 (converted)): 24 µM
CC50 (KM12; [13]): > 100 µM
TGI (KM12; read-out: pTGI (converted)): > 100 µM
GI50 ([6]; read-out: GI50): 1.58 µM
CC50 [6, 12]: > 100 µM
TGI ([6]; read-out: TGI): 5.4 µM
GI50 ([6]; read-out: pGI50 (converted)): 1.58 µM
CC50 [6, 13]: > 100 µM
TGI ([6]; read-out: pTGI (converted)): 5.37 µM
GI50 (786-0; read-out: GI50): 9.01 µM
CC50 (786-0; [12]): > 100 µM
TGI (786-0; read-out: TGI): > 100 µM
GI50 (786-0; read-out: pGI50 (converted)): 8.91 µM
CC50 (786-0; [13]): > 100 µM
TGI (786-0; read-out: pTGI (converted)): > 100 µM
growth at 1 µM (OVCAR-3 [7]): 107%
growth at 0.1 µM (MCF7): 91%
growth at 1000 µM (MDA-MB-435): 36%
growth at 100 µM (NCI-H322M [8]): 90%
growth at 10 µM (TK-10): 104%
growth at 100 µM (A549 [9]): 49%
growth at 1 µM (BT-549 [10]): 98%
growth at 1000 µM (DU-145): 16%
growth at 1 µM (OVCAR-5): 98%
GI50 (T47D; read-out: GI50): 13.9 µM
CC50 (T47D; [12]): > 100 µM
TGI (T47D; read-out: TGI): > 100 µM
GI50 (T47D; read-out: pGI50 (converted)): 13.8 µM
CC50 (T47D; [13]): > 100 µM
TGI (T47D; read-out: pTGI (converted)): > 100 µM
growth at 10 µM (COLO 205): 90%
growth at 0.1 µM (SF-539): 96%
growth at 1000 µM (SNB-19): 51%
growth at 10 µM (SK-MEL-28): 101%
growth at 10 µM (SK-MEL-2): 92%
growth at 100 µM (NCI-H226): 66%
growth at 0.1 µM (BT-549 [11]): 95%
